Measured values from paper PMC9925730, “Controlled sequential in situ self-assembly and disassembly of a fluorogenic cisplatin prodrug for cancer theranostics” (Nature Communications, 2023).
Values joined by “and” are separate entries in the source; they are usually repeats but may differ in a detail not shown here. Equal entries are not always repeated.

Columns and labels:
HeLa cells = experiment: ICP-OES analysis of Pt in HeLa cells (uptake); type: cell-based; conditions: Supplementary Table S1
Experimental: Supplementary Table 1. ICP-OES analysis of Pt in HeLa cells. a Pt drugs Pt element per cell Percentage of Pt element […]
a HeLa cells were untreated or pre-treated with Na3VO4 (10 mM) for 20 min and then incubated with indicated Pt drug (10 μM) for 1 h. Then, the cells were trypsinized, collected, and the cell numbers were counted and digested with trace metal concentrated HNO3 (65~70%) and HCl (36~38%). The amount of Pt element was determined by […]
b Pt per cell represents the average amount of Pt element in one HeLa cell, which was calculated by dividing the total amount of Pt element in cells by the cell number. c Percentage of Pt taken up by cells was calculated by dividing the total amount of Pt elements in cells by the amount of Pt drugs added. Values denote mean ± s.d. (n = 3 independent experiments). […]
The cell […]
lysates were separated according to a reported fragmentation procedure to obtained different cell fractions: pellet sample N (nuclei) was separated by 600 g for 10 min; pellet sample L (lysosomes and mitochondria) separated by 15000 g for 5 min; pellet sample M (plasma membrane) separated 100000g for 60 min and the remaining supernatant was soluble portion cytoplasm named as cell pellet C (cytosol) Pellets N, L, and M were all re-dispersed in 200 μL of D.I. water. Then, the solutions were collected and dropped on a carbon-coated copper grid, followed by freeze-drying respectively. The samples were then examined in a JEM-2800 Transmission Electron […]
Quantitative analysis of Pt in HeLa cells and different subcellular organelles. HeLa […]
cells were seeded in 10-cm dishes at a density of 4×10^6 cells/well and allowed to grow overnight. The cells were incubated with P-CyPt (10 μM), PtIVNPs (10 μM) and CDDP (10 μM) for 1 h, respectively. In P-CyPt + Na3VO4 group, HeLa cells were first incubated with Na3VO4 (10 mM) for 20 min, and then incubated with P-CyPt (10 μM) for another 60 min. After being washed with PBS for three times, the cells were trypsinized, centrifuged and counted. For Pt distribution analysis, the cells were treated with P-CyPt (10 μM) or CDDP (10 μM) for 1 h, and then washed with PBS for three times, followed by incubation with fresh medium for another 24 h. After that, cells were washed gently with 2 mL PBS once. The cells were trypsinized, centrifuged and counted. The cell lysates were separated according to a reported fragmentation procedure to obtained different cell fractions, including N (nuclei), M (plasma membrane), L (lysosomes and mitochondria) and C (cytosol). The Cells and different cell fractions were digested with concentrated HNO3 (65~70%) and HCl (36~38%) at 90 °C for 24 h. The solution was diluted to 5 mL 2% HNO3 and 5% HCl solution, and the concentration of Pt element was measured by ICP-OES, which was further applied to calculate the amount of Pt in cells and subcellular organelles.
Flow cytometry analysis of HeLa cell death. Approximately 2×10^5 cells/well HeLa cells in 2 mL DMEM medium were seeded onto 6-well plates and allowed to grow overnight. The medium was replaced with 1 mL of fresh medium containing P-CyPt (20 μM), PtIVNPs (20 μM) and CDDP (20 μM), respectively. After 2 h incubation, medium was removed and cells were washed with PBS for three times. Then, cells were incubated with fresh medium for another 48 h to induce different levels of apoptosis.
After gentle washing with PBS (×1), the cells were detached from the plates with trypsin (500 μL per well), and the cell pellets were collected after centrifugation at […] at 4 °C for 4 min. After washing with PBS, the pellets were re-suspended in 500 μL PBS buffer and stained with the annexin V-FITC/PI double staining apoptosis detection kit for flow cytometry. All assays were performed according to the manufacturer instructions, and the cell population was analyzed by annexin V-FITC and PI channels. The count number for each flow cytometry analysis was ~5000 to […]

[1] = Urine and faeces analysis by HPLC (mCy-containing compounds); type: in vivo, mice
[2] = Time period 0-2 h, individual mice, matrix and injected agent not given
[3] = Time period 0-2 h, mean of 3 mice, matrix and injected agent not given
[4] = Time period 2-4 h, individual mice
[5] = Time period 2-4 h, mean of 3 mice
[6] = Time period 4-8 h, individual mice
[7] = Time period 4-8 h, mean of 3 mice
[8] = Time period 8-12 h, mean of 3 mice
[9] = after i.v. preformed PtIVNPs, 2-4 h
[10] = after i.v. preformed PtIVNPs, 4-8 h
[11] = after i.v. preformed PtIVNPs, 8-12 h

CC1(C)C(/C=C/C2=C3Oc4cc(O)c(Cl)cc4C=C3CCC2)=[N+](CCCNC(=O)[C@@H](Cc2ccccc2)NC(=O)[C@@H](Cc2ccccc2)NC(=O)CCC(=O)[O][Pt]([NH2])([NH2])([OH])([Cl])[Cl])c2ccccc21 [CyPt]
Amount of Pt (HeLa cells; individual samples): 1.96 fmol/cell and 1.6407 fmol/cell and 1.595 fmol/cell | Total amount of Pt (HeLa cells; individual samples): 2.9% and 2.428% and 2.36% | Amount of Pt (HeLa cells; mean of 3 samples): 1.7317 fmol/cell | Total amount of Pt (HeLa cells; mean of 3 samples): 2.563% | Compound found in excreta (%), Supplementary Table S5 [1, 2]: 1.0169% and 1.15% and 0.9269% | Compound found in excreta (%), Supplementary Table S6 [1, 2]: 0.0316% and 0.04969% and 0.02632% | Compound found in excreta (%), Supplementary Table S7 [1, 2]: 0% | Compound found in excreta (%), Supplementary Table S8 [1, 2]: 0.5086% and 0.616% and 0.02021% | Compound found in excreta (%), Supplementary Table S5 [1, 3]: 1.03% | Compound found in excreta (%), Supplementary Table S6 [1, 3]: 0.0359% | Compound found in excreta (%), Supplementary Table S7 [1, 3]: 0.00% | Compound found in excreta (%), Supplementary Table S8 [1, 3]: 0.38% | Compound found in excreta (%), Supplementary Table S5 [1, 4]: 0.5615% and 0.6076% and 0.4976% | Compound found in excreta (%), Supplementary Table S6 [1, 4]: 0.965% and 1.15% and 0.7153% | Compound found in excreta (%), Supplementary Table S7 [1, 4]: 2.308% and 2.538% and 1.332% | Compound found in excreta (%), Supplementary Table S8 [1, 4]: 12.9072% and 11.8054% and 9.624% | Compound found in excreta (%), Supplementary Table S5 [1, 5]: 0.56% | Compound found in excreta (%), Supplementary Table S6 [1, 5]: 0.94% | Compound found in excreta (%), Supplementary Table S7 [1, 5]: 2.06% | Compound found in excreta (%), Supplementary Table S8 [1, 5]: 11.45% | Compound found in excreta (%), Supplementary Table S5 [1, 6]: 0.2738% and 0.2968% and 0.2509% | Compound found in excreta (%), Supplementary Table S6 [1, 6]: 10.4273% and 10.6083% and 7.985% | Compound found in excreta (%), Supplementary Table S7 [1, 6]: 3.373% and 3.391% and 1.995% | Compound found in excreta (%), Supplementary Table S8 [1, 6]: 11.1798% and 12.4002% and 9.36% | Compound found in excreta (%), Supplementary Table S5 [1, 7]: 0.27% | Compound found in excreta (%), Supplementary Table S6 [1, 7]: 9.67% | Compound found in excreta (%), Supplementary Table S7 [1, 7]: 2.92% | Compound found in excreta (%), Supplementary Table S8 [1, 7]: 10.98% | Compound found in excreta (%), Supplementary Table S8 ([1]; Time period 8-12 h, individual mice): 1.288% and 2.706% and 1.988% | Compound found in excreta (%), Supplementary Table S5 [1, 8]: 0.00% | Compound found in excreta (%), Supplementary Table S6 [1, 8]: 0.76% | Compound found in excreta (%), Supplementary Table S7 [1, 8]: 1.17% | Compound found in excreta (%), Supplementary Table S8 [1, 8]: 1.99% | percentage excreted to the faeces (HPLC) ([1]; after i.v. P-CyPt, 2-4 h): 0.94 ± 0.22% | percentage excreted to the urine (HPLC) ([1]; after i.v. P-CyPt, 2-4 h): 0.56 ± 0.055% | percentage excreted to the faeces (HPLC) ([1]; after i.v. P-CyPt, 4-8 h): 9.67 ± 1.46% and ~ 9.7% | percentage excreted to the urine (HPLC) ([1]; after i.v. P-CyPt, 4-8 h): 0.27 ± 0.23% | percentage excreted to the faeces (HPLC) ([1]; after i.v. P-CyPt, 8-12 h): 0.76 ± 0.14% | percentage excreted to the urine (HPLC) ([1]; after i.v. P-CyPt, 8-12 h): 0% | percentage excreted to the faeces (HPLC) [1, 9]: 11.44 ± 1.67% | percentage excreted to the urine (HPLC) [1, 9]: 2.06 ± 0.64% | percentage excreted to the faeces (HPLC) [1, 10]: 10.98 ± 1.53% | percentage excreted to the urine (HPLC) [1, 10]: 2.92 ± 0.80% | percentage excreted to the faeces (HPLC) [1, 11]: 1.99 ± 0.71% | percentage excreted to the urine (HPLC) [1, 11]: 1.16 ± 0.43%
